Patent US20220031605A1, “TARGETED DRUG DELIVERY SYSTEM TO BE USED IN TREATING OSTEOMYELITIS” (EGE UNIVERSITESI, priority 2018, published 2022)

Test system: Staphylococcus Aureus
Assay: In vivo osteomyelitis model (Staphylococcus Aureus injected to proximal tibia), radiograph and hematological analysis
Parameters: species or system Wistar albino rats
Details: rat osteomyelitis model
Procedure: Wistar albino rats were operated on, and osteomyelitis model was established by injecting Staphylococcus Aureus pathogen to the proximal tibia. In order to determined that the osteomyelitis model was formed, Xray (Radiograph) image was taken. The animals that were determined to have osteomyelitis, were separated into 3 groups, as the gelatin nanoparticle comprising gentamicin (I), free drug (II) and control (III) groups, and they were included in the treatment with 2-4 injections a weak. 100-300 μl, gelatin nanoparticle comprising gentamicin, free form (commercial gentamicin and physiological saline solution was injected intravenously into the tail vein of the groups I, II, and III respectively. On the 14th day following the commencement of treatment, a radiograph was taken in order to track the treatment process. Hematological analysis was carried out during the treatment and after the treatment. The lymphocyte reference range for rats was 1.4-9.4×10^3/μL. As a result of the haemogram carried out on healthy rats, the lymphocyte value was 7.4×10^3/μL.

gentamicin [Free gentamicin]
Lymphocyte number following 6 dose stherapy (intravenous, tail vein, after 6 doses, reference range 1.4-9.4, healthy rats 7.4): 12.6 10^3/μL | Radiograph finding after therapy (radiograph following 6 doses of therapy, compared with image 14 days after model establishment): abscess was present, bone integrity was not yet formed and healing was only present on the periost
